According to article PMC10515382, “Aminochalcones Attenuate Neuronal Cell Death under Oxidative Damage via Sirtuin 1 Activity” (ACS Omega, 2023):

How the values were obtained:
[1] = Cytotoxicity assay (MTT) against MRC-5 cells; assay type: cell-based; conditions: human, MRC-5 cells (normal embryonic lung cell line), read-out: Cytotoxic activity (IC50)
Protocol: MRC-5 cells were grown in DMEM supplemented with 100 U/mL penicillin–streptomycin and 10% FBS. Briefly, the cells suspended in the corresponding culture medium were inoculated in 96-well microtiter plates (Corning Inc., NY, USA) at 10,000–20,000 cells per well and then incubated at 37 °C under a humidified atmosphere with 5% CO2 for 24 h. An equal volume of additional medium containing serial dilutions of test compounds, positive control (doxorubicin), or negative control (DMSO) was added to the desired final concentrations. Microtiter plates were further incubated for 48 h. The cell viability in each well was determined by staining with the MTT assay reagent (Molecular Probes, Cat. no. M6494).[75]–[77] MTT solution ([…]) was added to all wells of the assay, and the plates were incubated for 2–4 h. Subsequently, DMSO was added to dissolve the resulting formazan by sonication. The plates were read on a microplate reader (Molecular Devices, USA) using a test wavelength of 550 nm and a reference wavelength of 650 nm. The IC50 value was determined as the concentration of compound that inhibited the cell growth by 50%.

[2] = system: H2O2-induced SH-SY5Y cells; experiment: Intracellular ROS production (DCFDA) in H2O2-induced SH-SY5Y cells; assay type: cell-based, human; conditions: for effect on intracellular ROS production: 5 μM pretreatment, vs H2O2 alone
Protocol: Green fluorescent DCF was generated by the oxidation of nonfluorescent carboxy-DCFDA, which is caused by intracellular ROS. SH-SY5Y cells (200 μL) at 1.0 × 10^5 cells/mL were seeded and incubated overnight in 96-well plates at 37 °C. Then, each well was pretreated for 3 h with 5 μM aminochalcones or resveratrol before exposure to 400 μM H2O2 for an additional 24 h. Subsequently, carboxy-H2DCFDA was introduced to the to a final concentration of 10 μM in the culture media and incubated at 37 °C for 30 min under dark conditions. Intracellular ROS production was instantly evaluated using a microplate reader at an emission wavelength of 528 nm and an excitation wavelength of 485 nm. The intracellular ROS production of the cells was expressed as percentages compared with the control group.[79]

[3] = system: H2O2-induced SH-SY5Y cells; experiment: Cell morphology observation in H2O2-induced SH-SY5Y cells; assay type: cell-based, human; conditions: 5 μM pretreatment 3 h, then 400 μM H2O2 24 h
Protocol: After adhering, the cells were treated with aminochalcones for 3 h. The culture media was refreshed, followed by an additional 24 h of exposure to 400 μM H2O2.

[4] = system: H2O2-induced SH-SY5Y cells; experiment: Mitochondrial membrane potential (Rhodamine-123) in H2O2-induced SH-SY5Y cells; assay type: cell-based, human; conditions: 5 μM pretreatment, vs H2O2 alone
Protocol: Mitochondrial-specific fluorescent dye, Rhodamine-123 (Sigma-Aldrich, Cat. no. R8004), was used to determine the MMP. The reduction in the fluorescence signal correlated with the decrease in MMP, which referred to a decrease in the mitochondrial function. SH-SY5Y cells (200 μL) at 1.0 × 10^5 cells/mL were plated onto the 96-well plate and incubated overnight at 37 °C. Then, each well was pretreated for 3 h with 5 μM aminochalcones or resveratrol before being challenged with 400 μM H2O2 for further 24 h. Cells were then exposed to Rhodamine-123 at a final concentration of 10 μM in the culture media and incubated at 37 °C for 30 min under dark conditions. At the end of incubation, cells were washed twice with PBS to remove the excess dye. MMP levels were then measured with a microplate reader at excitation and emission wavelengths of 488 and 525 nm, respectively. The MMP of the cells was expressed as percentages compared with the control group.[80]

[5] = system: H2O2-induced SH-SY5Y cells; experiment: LDH assay of cell membrane damage in H2O2-induced SH-SY5Y cells; assay type: cell-based, human; conditions: 5 μM pretreatment, vs H2O2 alone
Protocol: LDH leakage into the culture medium of aminochalcones with or without H2O2-treated cells was assessed by using an LDH assay kit to determine the neuroprotective effect of aminochalcones against H2O2-induced cell damage. To prepare samples for the LDH test, 2 mL of SH-SY5Y cells at 1.0 × 10^5 cells/mL concentration was added and incubated overnight in 6-well plates at 37 °C. Then, each well was pretreated for 3 h with 5 μM aminochalcones or resveratrol before exposure to 400 μM H2O2 for another 24 h. Subsequently, the LDH assay kit (Cat. no. MAK066) from Sigma-Aldrich (St. Louis, MO, USA) was used to measure the LDH activity, following the manufacturer’s instructions. The assay relies on the conversion of lactate to pyruvate by the enzyme lactate dehydrogenase and further produces NADH as a product, giving rise to an increase in absorbance at 450 nm.

[6] = system: H2O2-induced SH-SY5Y cells; experiment: Cell viability in H2O2-induced SH-SY5Y cells (MTT assay); assay type: cell-based, human; conditions: 5 μM pretreatment 3 h, then 400 μM H2O2 24 h; for protective effect on cell viability: vs nonpretreated group
Protocol: Cell viability was evaluated using the MTT assay. […] Cells were pretreated for 3 h with aminochalcones or resveratrol at various concentrations ranging from 0 to 100 μM before being incubated with 400 μM H2O2 (Sigma-Aldrich, Cat. no. 31642) for 24 h. Cells treated only with culture media, DMEM with 10% FBS, were used as the control. Each well received 5 mg/mL of MTT solution at the end of the incubation time, and the samples were then incubated at 37 °C in the dark for 2–4 h. Following the removal of the solution, 0.04 N HCl in isopropyl alcohol was added to dissolve the formazan crystals. A microplate reader programed to read at 570 nm was used to detect the MTT formazan product. The absorbance of formazan is directly proportional to the number of viable cells. The viability of the cells was expressed in percentages compared with the viability of the control group.[23]

SH-SY5Y cells = experiment: SH-SY5Y cell viability, compounds alone (MTT assay); assay type: cell-based, human; conditions: compounds alone at 10 μM, no H2O2
Protocol: Cell viability was evaluated using the MTT assay. Briefly, 96-well plates were seeded with SH-SY5Y cells at a density of 1 × 10^5 cells/mL and allowed to attach. Cells were pretreated for 3 h with aminochalcones or resveratrol at various concentrations ranging from 0 to 100 μM before being incubated with 400 μM H2O2 (Sigma-Aldrich, Cat. no. 31642) for 24 h. Cells treated only with culture media, DMEM with 10% FBS, were used as the control. Each well received 5 mg/mL of MTT solution at the end of the incubation time, and the samples were then incubated at 37 °C in the dark for 2–4 h. Following the removal of the solution, 0.04 N HCl in isopropyl alcohol was added to dissolve the formazan crystals. A microplate reader programed to read at 570 nm was used to detect the MTT formazan product. The absorbance of formazan is directly proportional to the number of viable cells. The viability of the cells was expressed in percentages compared with the viability of the control group.[23]

| melting point [°C] | Structure (SMILES) | IC50 at 48 h [1] [µM] | effect on intracellular ROS production [2] | effect on cell morphology [3] | effect on mitochondrial function [4] | effect on cell membrane damage [5] | protective effect on cell viability [6] | effect on cell viability, compounds alone (SH-SY5Y cells) | activity at 5 µM ([2]; Homo sapiens, SH-SY5Y, 5 μM pretreatment 3 h, then 400 μM H2O2 24 h, H2O2 alone 135.54%, read-out: intracellular ROS production (fluorescence intensity, % of control)) [%] | viability at 5 µM ([6]; Homo sapiens, SH-SY5Y, read-out: cell viability (percentage relative to control)) [%] |
| --- | --- | --- | --- | --- | --- | --- | --- | --- | --- | --- |
|  | COc1ccc(/C=C/C(=O)c2ccc(N)cc2)c(OC)c1OC [Compound 2, (E)-1-(4-Aminophenyl)-3-(2,3,4-trimethoxyphenyl)prop-2-en-1-one] | 99.3 ± 4.15 | reduced intracellular ROS production | prevented morphological aberration | prevented mitochondrial dysfunction | reduced cell membrane damage | significantly improved the cell viability |  |  |  |
|  | COc1cc(/C=C/C(=O)c2ccc(N)cc2)cc(OC)c1OC [Compound 3, (E)-1-(4-Aminophenyl)-3-(3,4,5-trimethoxyphenyl)prop-2-en-1-one] | 70.3 ± 3.78 | reduced intracellular ROS production | prevented morphological aberration | prevented mitochondrial dysfunction | reduced cell membrane damage | significantly improved the cell viability | hazardous to the treated cells |  |  |
| 187 to 189 | COc1ccc(/C=C/C(=O)c2ccc(N)cc2)cc1O [Compound 4, (E)-1-(4-Aminophenyl)-3-(3-hydroxy-4-methoxyphenyl)prop-2-en-1-one] | 115.3 ± 1.05 |  |  |  |  | low protective potential | hazardous to the treated cells |  |  |
|  | COc1cccc(/C=C/C(=O)c2ccc(N)cc2)c1 [Compound 5, (E)-1-(4-Aminophenyl)-3-(3-methoxyphenyl)prop-2-en-1-one] | 116 ± 8.08 | reduced intracellular ROS production | prevented morphological aberration | prevented mitochondrial dysfunction | reduced cell membrane damage | significantly improved the cell viability |  |  |  |
|  | COc1cccc2c1C(=O)c1c(O)c3c(c(O)c1C2=O)C[C@@](O)(C(=O)CO)C[C@@H]3O[C@H]1C[C@H](N)[C@H](O)[C@H](C)O1 [doxorubicin, reference compound] | 3.03 ± 0.09 |  |  |  |  |  |  |  |  |
|  | Oc1ccc(/C=C/c2cc(O)cc(O)c2)cc1 [resveratrol, reference compound] |  |  | morphological alterations were reduced |  |  |  |  | 123 ± 2 | 85 |
